# Patent US20020068749A1, “AIDS REMEDY” (priority 1996, published 2002)
# How the values were obtained:
# [1] = tested on: IIIB strain of HIV-1 in CEM-SS cells; test: Measurement of anti-HIV activity in vitro (XTT method, control of cellular denaturalization due to HIV infection); format: cell-based
# Procedure: An increase in the synergistic anti-virus activity in the combined use of KNI-272 and Saquinavir is shown by a specific experimental example. The anti-virus activity was evaluated as the capability of controlling generation of infectious virus particles in vitro. The effect of cell extinction to HIV infection was calculated when Saquinavir methanesulfonate and KNI-272 respectively or both were added to a culture liquid, to determine the concentration region where a synergistic increase in the anti-virus activity in the combined use of the two compounds is conspicuous. Measurement of the anti-virus activity in vitro was carried out according to the following procedure. In the description hereinafter the concentration of methanesulfonate is indicated as the concentration converted into Saquinavir. The concentration of KNI-272 is indicated as the concentration of the compound itself.
# A IIIB strain of HIV-1 was used as an HIV wild strain and CEM-SS cells were used as infected cells in the above-mentioned culture. The amount of HIV sufficient to kill all CEM-SS cells 6 days after inoculation (multiplicy of infection, MOI of 0.01-0.05) was determined and this amount of HIV was added. A 96 well micro-titre plate was used to inoculate 5×10^3 CEM-SS cells per well in this case. At the time of inoculation of cells, a test compound was added to the culture medium to a prescribed concentration. Three specimens were used for each test level. The following controls were used (1) as calorimetric controls: a sample with only a test compound added to the culture medium, (2) as a cytotoxic control for a test compound: a sample with only cells and the test compound added to the culture medium, (3) as a virus control: a sample with the cells inoculated with only a virus, and (4) as a cell survival control, a sample consisting only of cells. In addition, AZT and DDC which are compounds with a known anti-HIV activity were used as positive controls. After the cells were added, they were inoculated with the infecting virus, followed by incubation at 37° C.for 6 days. Cellular denaturalization due to HIV infection was colorimetrically measured for each well. Employing the colorimetry, was the metabolism from XTT Tetrazolium to XTT Formazan was evaluated. This colorimetry is called the XTT method (see Weislow et al., Journal of the National Cancer Institute 81, 577-586 (1989)). After the above-mentioned incubation, a prescribed amount of XTT was added to each well and incubation was continued for a further four hours at 37° C. to measure the amount of XTT Formazan produced by metabolism by means of calorimetric quantitation.
# The anti-HIV activity for each experimental level was calculated by comparing the number of undenatured cells measured by the above-mentioned assay with the corresponding number of cells in the four control groups. Specifically, the proportion of cellular denaturalization due to HIV infection controlled by the addition of the test compound was calculated. A systematic deviation between the several experiments was corrected based on the results of AZT and ddC used as positive controls.
# In this example, 0 ng/ml and several concentrations in the range of 0.625-10.0 ng/ml of Saquinavir methanesulfonate and 0 ng/ml and several concentrations in the range of 0.313-80.0 ng/ml of KNI-272 were used. The results (anti-HIV activities) obtained under these conditions using either one of these medicaments or both medicaments in combination are shown in Table 1.
# With regard to this concentration region wherein no synergistic increase can be seemingly identified, a similar evaluation was carried out adding a larger amount of HIV to qualitatively evaluate the presence or absence of a synergistic effect. […] This affords qualitative results rather than quantitative results.
# An increase in the synergistic anti-virus activity in the combined use of KNI-272 and Ritonavir is shown by a specific experimental example. […]
# [2] = Dynamics in vivo (concentration in plasma over time) of KNI-272 and Ritonavir in dogs; conditions: for MRT / AUC / Cmax / Tmax: dog, plasma, 15 mg/kg
# [3] = Change of concentration in plasma over time after oral administration to rats (KNI-272 with Indinavir or Nelfinavir); conditions: for AUC: rat, plasma, po
# Procedure: In this example, the change in concentration in blood of KNI-272 over time when the KNI-272 was orally administered in combination with Indinavir, i.e. the change in the concentration of a non-binding type of drug in plasma over time, was measured to evaluate the effect of drug interactions on fluctuations of dynamics in vivo. A commercially available Indinavir for oral administration, CRIXIVAN™ (manufactured by Merck), was used after dissolving Indinavir sulfate in a prescribed concentration. As KNI-272, a suspension prepared from a fine powder of KNI-272 was used. Rats were used as test animals. […] In addition, each compound was individually administered to control groups to evaluate the dynamics in vivo. The animals were fasted for 16 hours before administration. The measurement of the change in the non-binding drug concentration in plasma over time was carried out according to a conventional method using blood samples collected from the test animals.
# The method of evaluation was applied to the above-mentioned system of Indinavir and KNI-272 was followed. […] In this example, a dosage of 50 mg/kg was selected for both Nelfinavir and KNI-272.
# [4] = tested on: HIV Wild strain (IIIB); test: Anti-virus activity IC50 against wild strain; format: cell-based; conditions: Human immunodeficiency virus 1, IIIB, read-out: Anti-virus activity IC50
# [5] = tested on: Indinavir resistant strain; test: Anti-virus activity IC50 against Indinavir resistant strain; format: cell-based, HIV; conditions: Human immunodeficiency virus 1, read-out: Anti-virus activity IC50
# Description: A drug resistant strain virus is a resistance strains induced in a cell culture system in vitro while maintaining infection in the presence of each medicament through generations.
# [6] = po, KNI-272 15 mg/kg p.o., administered after Ritonavir, dogs
# [7] = po, KNI-272 15 mg/kg p.o., administered before Ritonavir, dogs
# [8] = Indinavir 40 mg/kg + KNI-272 40 mg/kg p.o. at the same time
smiles,measurement,setting,value
"CSC[C@H](NC(=O)COc1cccc2cnccc12)C(=O)N[C@@H](Cc1ccccc1)[C@H](O)C(=O)N1CSC[C@H]1C(=O)NC(C)(C)C [KNI-272, (R)-N-1,1-dimethylethyl-3-[(2S,3S)-2-hydroxy-3-[(R)-2-(5-isoquinolyloxyacetyl)amino-3-methylthiopropanoyl]amino-4-phenylbutanoyl]-1,3-thiazolidine-4-carboxyamide]",Anti-HIV activity (%),[1]; KNI-272 0.313 ng/ml alone (Table 1),4.8%
same,Anti-HIV activity (%),[1]; KNI-272 0.313 ng/ml alone (Table 4),5.6%
same,Anti-HIV activity (%),[1]; KNI-272 0.625 ng/ml alone (Table 1),0.0%
same,Anti-HIV activity (%),[1]; KNI-272 0.625 ng/ml alone (Table 4),2.1%
same,Anti-HIV activity (%),[1]; KNI-272 1.25 ng/ml alone (Table 1),1.2%
same,Anti-HIV activity (%),[1]; KNI-272 1.25 ng/ml alone (Table 4),3.8%
same,Anti-HIV activity (%),[1]; KNI-272 2.5 ng/ml alone (Table 1),11.0%
same,Anti-HIV activity (%),[1]; KNI-272 2.5 ng/ml alone (Table 4),2.2%
same,Anti-HIV activity (%),[1]; KNI-272 5.0 ng/ml alone (Table 1),8.5%
same,Anti-HIV activity (%),[1]; KNI-272 5.0 ng/ml alone (Table 4),0.0%
same,Anti-HIV activity (%),[1]; KNI-272 10.0 ng/ml alone (Table 1),13.1%
same,Anti-HIV activity (%),[1]; KNI-272 10.0 ng/ml alone (Table 4),2.5%
same,Anti-HIV activity (%),[1]; KNI-272 20.0 ng/ml alone (Table 1),15.7%
same,Anti-HIV activity (%),[1]; KNI-272 20.0 ng/ml alone (Table 4),12.8%
same,anti-HIV activity as fraction of that of combined use of 10.0 ng/ml Saquinavir methanesulfonate and 20.0 ng/ml KNI-272,[1]; KNI-272 30.0 ng/ml alone,⅓
same,Anti-HIV activity (%),[1]; KNI-272 40.0 ng/ml alone (Table 1),27.6%
same,Anti-HIV activity (%),[1]; KNI-272 40.0 ng/ml alone (Table 4),42.8%
same,anti-HIV activity as fraction of that of combined use of 20.0 ng/ml Ritonavir and 40.0 ng/ml KNI-272,[1]; KNI-272 60.0 ng/ml alone,about ¾
same,Anti-HIV activity (%),[1]; KNI-272 80.0 ng/ml alone (Table 1),65.7%
same,Anti-HIV activity (%),[1]; KNI-272 80.0 ng/ml alone (Table 4),100.0%
same,Cltot,"[2]; KNI-272 15 mg/kg i.v., dogs",1.49 h⁻¹ kg⁻¹
same,Vd(ss),"[2]; KNI-272 15 mg/kg i.v., dogs",0.70 kg⁻¹
same,F,"[2]; KNI-272 15 mg/kg p.o., administered after Ritonavir, dogs",55.2%
same,F,"[2]; KNI-272 15 mg/kg p.o., administered before Ritonavir, dogs",4.6%
same,MRT,"[2]; iv, KNI-272 15 mg/kg i.v., dogs",28.2 min
same,AUC,"[2]; iv, KNI-272 15 mg/kg i.v., independent administration, dogs",10100 ng·h/mL
same,AUC,"[2]; po, KNI-272 15 mg/kg p.o., administered after Ritonavir (100 mg/body p.o., 30 min interval), dogs",5570 ng·h/mL
same,Cmax,[2]; [6],2800 ng/mL
same,MRT,[2]; [6],96.8 min
same,Tmax,[2]; [6],30 min
same,AUC,"[2]; po, KNI-272 15 mg/kg p.o., administered before Ritonavir (100 mg/body p.o., 30 min interval), dogs",467 ng·h/mL
same,Cmax,[2]; [7],1000 ng/mL
same,MRT,[2]; [7],30.8 min
same,Tmax,[2]; [7],5 min
same,MRT value (index of the half-life of concentration in blood),[2]; medicaments individually administered,30 min
same,increase in maximum concentration value in blood (Cmax) of KNI-272,[3]; [8],about twice
same,increase in the value of AUC of KNI-272,[3]; [8],about a six-times increase
same,increase in AUC value of KNI-272,[3]; KNI-272 10 mg/kg one hour after Indinavir 90 mg/kg,about 10 times
same,decrease in the maximum concentration value in blood Cmax of KNI-272 (to fraction),[3]; KNI-272 50 mg/kg with Nelfinavir 50 mg/kg vs alone,about ¼
same,increase in the maximum concentration value in blood (Cmax) of KNI-272,[3]; KNI-272 administered one hour after Indinavir,3 times
same,AUC,"[3]; 10 mg/kg, AUC value of KNI-272, KNI-272 10 mg/kg p.o., no Indinavir",660 ng·h/mL
same,AUC,"[3]; 40 mg/kg, AUC value of KNI-272, KNI-272 40 mg/kg p.o. individually",4900 ng·h/mL
same,AUC,"[3]; 40 mg/kg, AUC value of KNI-272, KNI-272 40 mg/kg p.o. together with Indinavir 40 mg/kg",29200 ng·h/mL
same,AUC,"[3]; 50 mg/kg, AUC value for KNI-272, KNI-272 50 mg/kg p.o. only",9170 ng·h/mL
same,AUC,"[3]; 50 mg/kg, AUC value for KNI-272, KNI-272 50 mg/kg p.o. simultaneously with Nelfinavir 50 mg/kg",10300 ng·h/mL
same,AUC,"[3]; AUC value of KNI-272, KNI-272 10 mg/kg p.o. one hour after Indinavir 90 mg/kg",6900 ng·h/mL
same,IC50,[4],7 ng/mL
same,IC50,[5],10 ng/mL
